Holding throughout (format): biochemical
In assay [1] the target is T1, recombinant human 17β-HSD1 (Homo sapiens, UniProt P14061).
T1 construct: made in house; host or cells: Sd9 (Sf9) insect cells, baculovirus (Bac to Bac Expression System)
T1 sequence (P14061 1-328): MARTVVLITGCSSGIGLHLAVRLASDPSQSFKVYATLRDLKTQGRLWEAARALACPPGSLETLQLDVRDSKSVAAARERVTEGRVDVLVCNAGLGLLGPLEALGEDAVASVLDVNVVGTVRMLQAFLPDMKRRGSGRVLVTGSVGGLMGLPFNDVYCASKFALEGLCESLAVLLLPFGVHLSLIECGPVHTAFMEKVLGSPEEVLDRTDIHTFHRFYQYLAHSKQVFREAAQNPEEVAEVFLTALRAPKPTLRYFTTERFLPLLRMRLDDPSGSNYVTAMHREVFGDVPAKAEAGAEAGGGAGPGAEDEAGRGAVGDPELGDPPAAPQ
The experiment in a line: Inhibition of recombinant human 17β-HSD1. Particulars: inhibitor 100 nM; 30 nM estrone, 1 mM NADPH, 30 min RT. How it is done: 17β-HSD1 production and isolation: Recombinant baculovirus was generated by the “Bac to Bac Expression System” (Invitrogen). Recombinant bacmid was transfected to Sd9 insect cells using “Cellfectin Reagent” (Invitrogen). 60 h later cells were harvested; the microsomal fraction was isolated as described by Puranen, T. J., Poutanen, M. H., Peltoketo, H. E., Vihko, P. T. and Vihko, R. K. (1994) Site-directed mutagenesis of the putative active site of human 17 β-hydroxysteroid dehydrogenase type 1. Biochem. J. 304: 289-293. Aliquots were stored frozen until determination of enzymatic activity.
Assay—Inhibition of recombinant human 17β-HSD1: Recombinant protein (1 μg/ml) was incubated in 20 mM KH2PO4 pH 7.4 with 30 nM estrone (including 800 000 cpm/ml of ^3H-estrone) and 1 mM NADPH for 30 min at RT, in the presence of the potential inhibitor at concentrations 1 μM or 0.1 μM. Inhibitor stock solutions were prepared in DMSO. Final concentration of DMSO was adjusted to 1% in all samples. The enzyme reaction was stopped by addition of 10% trichloroacetic acid (final concentration). Samples were centrifuged in a microtiter plate at 4000 rpm for 10 min. Supernatants were applied to reverse phase HPLC on a Waters Symmetry C18 column, equipped with a Waters Sentry Guard column. Isocratic HPLC runs were performed at RT at a flow rate of 1 ml/min in acetonitrile:water 48:52 as running solvent. Radioactivity was monitored in the eluate by a Scintillation Analyzer. Total radioactivity for estrone and estradiol were determined in each sample and percent conversion of estrone to estradiol was calculated according to the following formula:
(§1) [formula] Percent inhibition was calculated flowingly: % inhibition=100−% conversion

In assay [2] the target is T2, recombinant human 17β-HSD2 (Homo sapiens, UniProt P37059).
T2 construct: made in house; host or cells: Sd9 (Sf9) insect cells, baculovirus (Bac to Bac Expression System)
T2 sequence (P37059 1-387): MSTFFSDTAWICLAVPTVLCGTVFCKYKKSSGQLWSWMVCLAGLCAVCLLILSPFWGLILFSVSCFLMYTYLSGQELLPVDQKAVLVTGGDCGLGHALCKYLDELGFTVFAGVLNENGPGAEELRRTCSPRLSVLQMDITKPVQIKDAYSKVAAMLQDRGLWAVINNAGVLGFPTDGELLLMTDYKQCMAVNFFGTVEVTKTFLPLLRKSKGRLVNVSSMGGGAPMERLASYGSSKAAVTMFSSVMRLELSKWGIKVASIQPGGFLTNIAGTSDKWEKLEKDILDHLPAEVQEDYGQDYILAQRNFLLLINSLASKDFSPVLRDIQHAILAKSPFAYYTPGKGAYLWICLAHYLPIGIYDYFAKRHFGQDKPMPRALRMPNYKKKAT
The experiment in a line: Inhibition of recombinant human 17β-HSD2. As to conditions: inhibitor 1 μM; 50 nM estradiol, 1 mM NADH, 30 min RT. The procedure: 17β-HSD2 production and isolation: Similarly to 17β-HSD1 the Recombinant baculovirus was generated by the “Bac to Bac Expression System” (Invitrogen). Recombinant bacmid was transfected to Sd9 insect cells using “Cellfectin Reagent” (Invitrogen). 60 h later cells were harvested and supernatant were fractionated by the following protocol: • cells were dissolved into 40 ml of A-buffer (40 mM TRIS, pH 8.0, 20% glycerol, 20 μM NAD, 0.4 mM PMSF, 150 mM NaCl, 0.5% dodecyl-β-maltoside+protease inhibitor cocktail) • cells were sonicated • lysate was incubated on ice for 15 min • lysate was centrifuged 5000 rpm 15 min, +4° C. • centrifugation of the supernatant 180 000 g 30 min, +4° C. • pellet was dissolved into 8 ml of A-buffer • not resuspended material was removed by centrifugation 5000 rpm min, +4° C. • the clear supernatant was divided into 100 μl aliquots and were stored frozen until determination of enzymatic activity.
The amount of 17β-HSD2 was analysed by immunoblotting and total protein concentration of each extract batch was determined.
Assay—Inhibition of recombinant human 17β-HSD2: Recombinant protein (4 μg/ml) was incubated in 20 mM KH2PO4 pH 8.5 with 50 nM estradiol (including 800 000 cpm/ml of ^3H-estradiol) and 1 mM NADH for 30 min at RT, in the presence of the potential inhibitor at concentrations 1 μM or 0.1 μM. Inhibitor stock solutions were prepared in DMSO. Final concentration of DMSO was adjusted to 1% in all samples. The enzyme reaction was stopped by addition of 10% trichloroacetic acid (final concentration). Samples were centrifuged in a microtiter plate at 4000 rpm for 10 min. Supernatants were applied to reverse phase HPLC on a Waters Symmetry C18 column, equipped with a Waters Sentry Guard column. Isocratic HPLC runs were performed at RT at a flow rate of 1 ml/min in acetonitrile:water 48:52 as running solvent. Radioactivity was monitored in the eluate by a Scintillation Analyzer. Total radioactivity for estrone and estradiol were determined in each sample and percent conversion of estradiol to estrone was calculated according to the following formula:
as §1

Assay [3] concerns HSD1 enzyme that is expressed in rabbit placenta tissue. The experiment in a line: Inhibition of E1 to E2 conversion in rabbit placenta tissue homogenate. As to conditions: inhibitor 100 nM, 30 nM estrone, 30 min. The procedure: The assay is based on an enzymatic reaction where HSD1 enzyme that is expressed in rabbit placenta tissue converts its natural substance estrone (E1) to estradiol (E2) in the presence of a co-factor β-NADPH.
Homogenization of rabbit placenta tissue: Weight a piece of the frozen tissue into a Precellys ck28 bead tube. Add buffer solution (20 mM KH2PO4 with 1 mM EDTA, pH 7,4) in 1:2 ratio (e.g. 300 mg of tissue:600 μl reaction buffer solution). Insert the bead tubes to homogenizer and homogenize 2×30 s. 6000 rpm. Centrifugated 5 min., 2600 rpm at +4° C. and collect supernatant. Aliquots of homogenate are stored in −80° C.
Assay—Inhibition of E1 to E2 conversion in rabbit placenta tissue: The reaction takes place in a buffer solution (20 mM KH2PO4 with 1 mM EDTA, pH 7,4), including appropriate amount of rabbit placenta homogenate, co-factor (1 mM β-NADPH), Substrate (30 nM estrone), labelled substrate as tracer (5 nM [^3H]-estrone). During a 30-minute incubation part of the estrone is converted to estradiol. The reaction is stopped by lowering the pH to 1 with 10% trichloro acetic acid (TCA). The substrate and conversion products are analyzed by HPLC and a Scintillation counter analyzer. Total radioactivity for estrone and estradiol were determined in each sample and percent conversion of estrone to estradiol was calculated according to the following formula:
Percent inhibition was calculated flowingly: % inhibition=100−% conversion.

From patent publication US20240309043A1, “THERAPEUTICALLY ACTIVE STEROIDAL DERIVATIVES” (Organon R&D Finland Ltd., priority 2017, published 2024) come the findings set out here.

Broadly, the inhibition is the share of the control response that was lost under treatment.

For `C[C@]12CCC3c4cccc(F)c4CCC3C1[C@H](CCC(=O)NC1COC1)C/C2=N\O` (stereo partly drawn) [Compound 10, 3-((13S,15R,E)-4-fluoro-17-(hydroxyimino)-13-methyl-7,8,9,11,12,13,14,15,16,17-decahydro-6H-cyclopenta[a]phenanthren-15-yl)-N-(oxetan-3-yl)propanamide], the inhibition at 0.1 µM in assay [1] was 30%. Also, the inhibition at 1 µM in assay [2] stood at 5%. Besides, the “Rabbit placenta inhibition % @100 nM” value in assay [3] was 18%.
For `CN(C(=O)CC[C@@H]1C/C(=N\O)[C@@]2(C)CCC3c4cccc(F)c4CCC3C12)C1COC1` (stereo partly drawn) [Compound 12, 3-((13S,15R,E)-4-fluoro-17-(hydroxyimino)-13-methyl-7,8,9,11,12,13,14,15,16,17-decahydro-6H-cyclopenta[a]phenanthren-15-yl)-N-methyl-(oxetan-3-yl)propanamide], the inhibition at 0.1 µM in assay [1] came out at 73%. Further, in assay [2], the inhibition at 1 µM was found to be 2%.
As to `C[C@]12CCC3c4cccc(F)c4CCC3C1[C@H](CCC(=O)N1CCCC1)C/C2=N\O` (stereo partly drawn) [Compound 14, 3-((13S,15R,E)-4-fluoro-17-(hydroxyimino)-13-methyl-7,8,9,11,12,13,14,15,16,17-decahydro-6H-cyclopenta[a]phenanthren-15-yl)-1-(pyrrolidin-1-yl)propan-1-one], the inhibition at 0.1 µM in assay [1] was 53%. Besides, the inhibition at 1 µM in assay [2] was found to be 4%. Moreover, the “Rabbit placenta inhibition % @100 nM” value in assay [3] is listed as 14%.
For the compound `Cc1ccc(NC(=O)CC[C@@H]2C/C(=N\O)[C@@]3(C)CCC4c5cccc(F)c5CCC4C23)nn1` (stereo partly drawn) [Compound 16, 3-((13S,15R,E)-4-fluoro-17-(hydroxyimino)-13-methyl-7,8,9,11,12,13,14,15,16,17-decahydro-6H-cyclopenta[a]phenanthren-15-yl)-N-(6-methylpyridazin-3-yl) propanamide], the inhibition at 0.1 µM in assay [1] is 79%. The inhibition at 1 µM in assay [2] turned out to be 9%. Besides, the “Rabbit placenta inhibition % @100 nM” value in assay [3] turned out to be 81%.
As to `C[C@]12CCC3c4ccc(F)cc4CCC3C1[C@H](CCC(=O)Nc1cccnn1)C/C2=N\O` (stereo partly drawn) [Compound 34, 3-((13S,15R,E)-3-fluoro-17-(hydroxyimino)-13-methyl-7,8,9,11,12,13,14,15,16,17-decahydro-6H-cyclopenta[a]phenanthren-15-yl)-N-(pyridazin-3-yl)propanamide], the inhibition at 0.1 µM in assay [1] was 23%. Moreover, the inhibition at 1 µM in assay [2] worked out at 9%.
As to `C[C@]12CCC3c4ccc(F)cc4CCC3C1[C@H](CCC(=O)Nc1nncs1)C/C2=N\O` (stereo partly drawn) [Compound 38, 3-((13S,15R,E)-3-fluoro-17-(hydroxyimino)-13-methyl-7,8,9,11,12,13,14,15,16,17-decahydro-6H-cyclopenta[a]phenanthren-15-yl)-N-(1,3,4-thiadiazol-2-yl)propanamide], in assay [1], the inhibition at 0.1 µM is 21%. Also, in assay [2], the inhibition at 1 µM amounted to 3%.
Turning to `C[C@]12CCC3c4cccc(F)c4CCC3C1[C@H](CCC(=O)Nc1ccccn1)C/C2=N\O` (stereo partly drawn) [Compound 138, 3-((13S,15R,E)-4-fluoro-17-(hydroxyimino)-13-methyl-7,8,9,11,12,13,14,15,16,17-decahydro-6H-cyclopenta[a]phenanthren-15-yl)-N-(pyridin-2-yl)propanamide], in assay [1], the inhibition at 0.1 µM is 89%. In assay [3], the “Rabbit placenta inhibition % @100 nM” value came to 36%.
With `C[C@]12CCC3c4cccc(F)c4CCC3C1[C@H](CCC(=O)Nc1cc3c([nH]c1=O)CCCC3)C/C2=N\O` (stereo partly drawn) [Compound 178, 3-((13S,15R,E)-4-fluoro-17-(hydroxyimino)-13-methyl-7,8,9,11,12,13,14,15,16,17-decahydro-6H-cyclopenta[a]phenanthren-15-yl)-N-(2-oxo-12,5,6,7,8-hexahydroguinolin-3-yl)propanamide], in assay [1], the inhibition at 0.1 µM amounted to 95%. Also, the inhibition at 1 µM in assay [2] came to 9%.
